{
  "source": "patent US20220144847A1",
  "about": "“HETEROCYCLIC COMPOUND, PHARMACEUTICAL COMPOSITION COMPRISING SAME, PREPARATION METHOD THEREFOR, AND USE THEREOF” (Sichuan Kelun-Biotech Biopharmaceutical Co., Ltd., priority 2019, published 2022)",
  "type_in_all_cases": "biochemical",
  "key": {"RET-WT": {"molecular_target": "RET-WT (Homo sapiens, UniProt P07949)", "sequence (P07949 29-1114)": "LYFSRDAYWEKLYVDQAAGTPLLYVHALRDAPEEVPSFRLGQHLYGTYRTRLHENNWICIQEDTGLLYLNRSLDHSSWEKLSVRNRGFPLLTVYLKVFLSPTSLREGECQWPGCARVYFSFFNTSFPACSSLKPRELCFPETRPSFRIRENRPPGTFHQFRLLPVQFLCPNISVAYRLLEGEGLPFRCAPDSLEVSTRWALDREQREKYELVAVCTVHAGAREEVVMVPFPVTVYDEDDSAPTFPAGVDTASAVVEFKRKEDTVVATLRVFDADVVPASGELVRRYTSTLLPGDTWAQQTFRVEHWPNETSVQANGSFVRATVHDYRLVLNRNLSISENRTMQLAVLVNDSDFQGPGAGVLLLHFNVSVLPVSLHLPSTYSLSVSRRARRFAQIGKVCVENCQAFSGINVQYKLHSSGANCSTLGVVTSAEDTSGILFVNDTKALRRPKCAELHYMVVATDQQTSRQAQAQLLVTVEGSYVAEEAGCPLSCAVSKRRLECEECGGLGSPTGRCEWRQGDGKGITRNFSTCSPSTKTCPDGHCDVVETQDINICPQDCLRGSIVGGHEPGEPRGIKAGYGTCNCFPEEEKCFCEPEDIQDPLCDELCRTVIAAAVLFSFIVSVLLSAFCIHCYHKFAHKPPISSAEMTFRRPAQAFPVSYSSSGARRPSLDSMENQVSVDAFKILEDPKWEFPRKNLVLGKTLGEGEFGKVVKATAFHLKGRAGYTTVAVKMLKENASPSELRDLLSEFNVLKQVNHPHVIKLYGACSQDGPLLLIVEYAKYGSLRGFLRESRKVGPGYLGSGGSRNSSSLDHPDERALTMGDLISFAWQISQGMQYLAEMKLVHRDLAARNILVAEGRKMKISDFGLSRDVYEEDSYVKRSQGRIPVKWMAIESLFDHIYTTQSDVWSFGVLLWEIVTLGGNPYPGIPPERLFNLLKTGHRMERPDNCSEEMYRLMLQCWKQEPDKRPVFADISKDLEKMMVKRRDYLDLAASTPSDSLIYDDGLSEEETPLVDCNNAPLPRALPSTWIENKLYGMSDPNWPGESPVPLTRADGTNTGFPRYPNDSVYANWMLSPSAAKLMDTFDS", "assay": "RET inhibition experiment (HTRF KinEASE-TK kit), wild-type RET enzyme", "details": "read-out: The IC50 (nM) for inhibiting RET-WT", "procedure": "(§1) Experimental method: […] After incubation at room temperature for 40 min, TK antibody-cryptate and streptavidin-XL665 were added, and the test was performed after incubation at room temperature for 45 min. With the solvent group (DMSO) as the negative control and the buffer group (without RET enzyme) as the blank control, the relative inhibitory activity percentages (i.e., inhibition rates) of different concentrations of the compounds were computed as per the following formula: […] The relative inhibitory activity percentages of different concentrations of the compounds were plotted with respect to the compound concentrations, and the curve was fitted according to a four-parameter model to compute the IC50 value as per the following formula: y=min+(max-min)/(1+(x/IC50)^(-Hillslope)) where y is the relative inhibitory activity percentage, max is the maximum value of the fitted curve, min is the minimum value of the fitted curve, x is the logarithmic concentration of the compound, and Hillslope is the slope of the curve."}, "RET-M918T": {"molecular_target": "RET-M918T (Homo sapiens, UniProt P07949, M918T)", "sequence (P07949 29-1114 M918T)": "as the sequence (P07949 29-1114) above, with M890T counted along it", "assay": "RET inhibition experiment (HTRF KinEASE-TK kit), mutant RET-M918T", "details": "read-out: The IC50 (nM) for inhibiting the enzyme RET-M918T", "procedure": "as §1"}, "RET-CCDC6": {"molecular_target": "T1, RET-CCDC6 (Homo sapiens, UniProt P07949)", "T1 construct": "CCDC6 fusion partner (Q16204 for human); the other entry of the earlier key: CCDC6 (Q16204, Coiled-coil domain-containing protein 6)", "T1 sequence (P07949 with tags, fused parts or gaps)": "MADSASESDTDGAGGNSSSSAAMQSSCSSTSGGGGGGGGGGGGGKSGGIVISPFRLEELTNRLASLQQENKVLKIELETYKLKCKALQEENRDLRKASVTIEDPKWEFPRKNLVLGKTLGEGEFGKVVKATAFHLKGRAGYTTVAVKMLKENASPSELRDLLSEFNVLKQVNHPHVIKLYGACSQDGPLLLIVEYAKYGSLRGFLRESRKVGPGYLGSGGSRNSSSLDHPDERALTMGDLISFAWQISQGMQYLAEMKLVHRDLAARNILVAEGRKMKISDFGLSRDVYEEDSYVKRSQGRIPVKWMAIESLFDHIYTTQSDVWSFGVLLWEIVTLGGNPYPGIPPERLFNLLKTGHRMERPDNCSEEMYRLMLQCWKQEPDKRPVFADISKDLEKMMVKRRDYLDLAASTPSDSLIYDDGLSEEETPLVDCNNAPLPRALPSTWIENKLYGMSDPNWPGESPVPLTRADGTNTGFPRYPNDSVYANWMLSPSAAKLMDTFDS", "assay": "RET inhibition experiment (HTRF KinEASE-TK kit), fusion-type RET enzyme", "details": "read-out: The IC50 (nM) for inhibiting RET-CCDC6", "procedure": "as §1"}, "RET-V804M": {"molecular_target": "RET-V804M (Homo sapiens, UniProt P07949, V804M)", "sequence (P07949 29-1114 V804M)": "as the sequence (P07949 29-1114) above, with V776M counted along it", "assay": "RET inhibition experiment (HTRF KinEASE-TK kit), mutant RET-V804M", "details": "read-out: The IC50 (nM) for inhibiting V804M", "in_short": "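Enzyme was pre-incubated with compound at room temperature for 30 min, then substrate and ATP were added for a 40 min reaction. HTRF signal was read after 45 min with TK antibody-cryptate and streptavidin-XL665. IC50 came from a four-parameter fit of percent inhibition against DMSO and no-enzyme controls.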"}},
  "data": [
    {"molecule": "Cc1cc(Nc2cc(C)[nH]n2)nc(-c2ccc(N3CC4CC(C3)N4Cc3ccc(-n4cc(F)cn4)nc3)nc2)n1", "note": "[Compound 17, 2-(6-(6-((6-(4-fluoro-1H-pyrazol-1-yl)pyridin-3-yl)methyl)-3,6-diazabicyclo[3.1.1]heptan-3-yl)pyridin-3-yl)-6-methyl-N-(5-methyl-1H-pyrazol-3-yl)pyrimidin-4-amine]", "values": [
      {"measurement": "IC50", "setting": "RET-WT", "value": "1.32 ± 0.31", "unit": "nM"},
      {"measurement": "IC50", "setting": "RET-M918T", "value": "1.47 ± 0.29", "unit": "nM"},
      {"measurement": "IC50", "setting": "RET-CCDC6", "value": "2.5 ± 0.55", "unit": "nM"},
      {"measurement": "IC50", "setting": "RET-V804M", "value": "1.03 ± 0.47", "unit": "nM"}
    ]}
  ]
}
